Reference: US4357326A, “Multi-glucopyranosyl-fructofuranosyl-galactopyranosyl-glucopyranoside sulfate salts and methods of use” (American Cyanamid Company, priority 1981, dated 1982)
Structures can show the parent of a compound that is named as a salt.

Tests used:
[1] = target: activated human C1 (Homo sapiens, UniProt P09871); assay: Test Code 026 (C1 inhibitor); type: biochemical; details: in vitro; serial twofold dilution assay, higher well number indicates higher activity
Text: (§1) An active inhibitor protects C2 from C1 and C4; (ii) Test Code 035 (C3-C9 inhibitor)--This test determines the ability of the late components of human complement (C3-C9) to lyse EAC 142 in the presence of appropriate dilutions of the test compound. An active inhibitor protects EAC 142 from lysis by human C3-C9; (iii) Test Code 036 (C-Shunt inhibitor)--In this test human erythrocytes rendered fragile are lysed in autologous serum via the shunt pathway activated by cobra venom factor in the presence of appropriate dilutions of the test compound. Inhibition of the shunt pathway results in failure of lysis; (iv) Cap 50 Test--Here, appropriate amounts of the test compound are added to a pool of guinea pig serum in vitro, after which the complement level is determined in undiluted serum by the serum capillary tube assay of U.S. Pat. No. 3,876,376. The concentration of compound inhibiting 50% is reported; and (v) Guinea Pig Intraperitoneal Test (GPIP)--Guinea pigs weighing about 300 g are dosed intraperitoneally (i.p.) with 200 mg/kg of the test compound dissolved in saline and adjusted to pH 7-8. Approximately 0.4 ml blood samples, taken by orbital sinus puncture 30 minutes and one hour after injections, are collected directly into centrifuge tubes; 5 ml blood samples, taken by decapitation 2 hours after injection are collected directly into disPo® beakers. The samples were allowed to clot, centrifuged, and the resultant sera were assayed for complement activity using the capillary complement assay referred to above. Percent inhibition is calculated by comparison with simultaneous controls. The results of the GPIP appear in Table I together with results of Test Code 026, 035, 036 and Cap 50.

[2] = test system: shunt pathway activated by cobra venom factor; assay: Test Code 036 (C-Shunt inhibitor), lysis of fragile human erythrocytes in autologous serum; type: cell-based; details: in vitro; serial twofold dilution assay, higher well number indicates higher activity
Text: as §1

[3] = test system: late components of human complement (C3-C9); assay: Test Code 035 (C3-C9 inhibitor), lysis of EAC 142; type: biochemical; details: in vitro; serial twofold dilution assay, higher well number indicates higher activity
Text: as §1

[4] = test system: complement activity of sera; assay: Guinea Pig Intraperitoneal Test (GPIP); type: in vivo; details: 200 mg/kg i.p.
Text: as §1

[5] = test system: total hemolytic complement activity of human serum; details: in vitro and in vivo, judged by reduction in total hemolytic complement activity; cited from earlier work

Compound	C1 026 Wells [1]	C-Shunt Inhibition 036 Wells [2]	C-Late 035 Wells [3]	In vivo Activity (Guinea pigs) % Inhibition Intraperitoneal, 30 minutes ([4]; blood sample 30 minutes after injection)	In vivo Activity (Guinea pigs) % Inhibition Intraperitoneal, 60 minutes ([4]; blood sample 60 minutes after injection)	In vivo Activity (Guinea pigs) % Inhibition Intraperitoneal, 120 minutes ([4]; blood sample 120 minutes after injection)	anticomplementary activity on human serum [5]
O=S(=O)(O)OC[C@H]1O[C@H](OC[C@H]2O[C@H](O[C@]3(COS(=O)(=O)O)O[C@H](CO[C@@H]4O[C@H](COS(=O)(=O)O)[C@@H](O[C@H]5O[C@H](COS(=O)(=O)O)[C@@H](O[C@H]6O[C@H](COS(=O)(=O)O)[C@@H](OS(=O)(=O)O)[C@H](OS(=O)(=O)O)[C@H]6OS(=O)(=O)O)[C@H](OS(=O)(=O)O)[C@H]5OS(=O)(=O)O)[C@H](OS(=O)(=O)O)[C@H]4OS(=O)(=O)O)[C@@H](OS(=O)(=O)O)[C@@H]3OS(=O)(=O)O)[C@H](OS(=O)(=O)O)[C@@H](OS(=O)(=O)O)[C@@H]2OS(=O)(=O)O)[C@H](OS(=O)(=O)O)[C@@H](OS(=O)(=O)O)[C@H]1OS(=O)(=O)O [drawing 23, O-α-D-Glucopyranosyl(1→4)-O-α-D-glucopyranosyl(1→4)-O-β-D-glucopyranosyl(1→6)-β-D-fructofuranosyl-O-α-D-galactopyranosyl(1→6)-α-D-glucopyranoside eicosakis(H-sulfate) eicosasalt with trimethylamine]	9 Wells	5 Wells	2 Wells				
O=S(=O)(O)OC[C@H]1O[C@H](OC[C@H]2O[C@H](O[C@]3(COS(=O)(=O)O)O[C@H](CO[C@@H]4O[C@H](COS(=O)(=O)O)[C@@H](O[C@H]5O[C@H](COS(=O)(=O)O)[C@@H](O[C@H]6O[C@H](COS(=O)(=O)O)[C@@H](OS(=O)(=O)O)[C@H](OS(=O)(=O)O)[C@H]6OS(=O)(=O)O)[C@H](OS(=O)(=O)O)[C@H]5OS(=O)(=O)O)[C@H](OS(=O)(=O)O)[C@H]4OS(=O)(=O)O)[C@@H](OS(=O)(=O)O)[C@@H]3OS(=O)(=O)O)[C@H](OS(=O)(=O)O)[C@@H](OS(=O)(=O)O)[C@@H]2OS(=O)(=O)O)[C@H](OS(=O)(=O)O)[C@@H](OS(=O)(=O)O)[C@H]1OS(=O)(=O)O [drawing 24, O-α-D-Glucopyranosyl(1→4)-O-α-D-glucopyranosyl(1→4)-O-β-D-glucopyranosyl(1→6)-β-D-fructofuranosyl-O-α-D-galactopyranosyl(1→6)-α-D-glucopyranoside eicosakis(H-sulfate), eicosasodium salt]	9 Wells	6 Wells	1 Wells	49%	67%	78%	
O=S(=O)(O)OC[C@H]1O[C@H](OC[C@H]2O[C@H](O[C@]3(COS(=O)(=O)O)O[C@H](CO[C@@H]4O[C@H](COS(=O)(=O)O)[C@@H](O[C@H]5O[C@H](COS(=O)(=O)O)[C@@H](O[C@H]6O[C@H](COS(=O)(=O)O)[C@@H](O[C@H]7O[C@H](COS(=O)(=O)O)[C@@H](O[C@H]8O[C@H](COS(=O)(=O)O)[C@@H](O[C@H]9O[C@H](COS(=O)(=O)O)[C@@H](O[C@H]%10O[C@H](COS(=O)(=O)O)[C@@H](OS(=O)(=O)O)[C@H](OS(=O)(=O)O)[C@H]%10OS(=O)(=O)O)[C@H](OS(=O)(=O)O)[C@H]9OS(=O)(=O)O)[C@H](OS(=O)(=O)O)[C@H]8OS(=O)(=O)O)[C@H](OS(=O)(=O)O)[C@H]7OS(=O)(=O)O)[C@H](OS(=O)(=O)O)[C@H]6OS(=O)(=O)O)[C@H](OS(=O)(=O)O)[C@H]5OS(=O)(=O)O)[C@H](OS(=O)(=O)O)[C@H]4OS(=O)(=O)O)[C@@H](OS(=O)(=O)O)[C@@H]3OS(=O)(=O)O)[C@H](OS(=O)(=O)O)[C@@H](OS(=O)(=O)O)[C@@H]2OS(=O)(=O)O)[C@H](OS(=O)(=O)O)[C@@H](OS(=O)(=O)O)[C@H]1OS(=O)(=O)O [drawing 25, O-α-D-Glucopyranosyl(1→4)-[O-α-D-glucopyranosyl(1→4)]5 -O-β-D-glucopyranosyl(1→6)-β-D-fructofuranosyl-O-α-D-galactopyranosyl(1→6)-α-D-glucopyranoside dotriacontakis(H-sulfate), dotriacontasalt with trimethylamine]	9 Wells	4 Wells	1 Wells				
O=S(=O)(O)OC[C@H]1O[C@H](OC[C@H]2O[C@H](O[C@]3(COS(=O)(=O)O)O[C@H](CO[C@@H]4O[C@H](COS(=O)(=O)O)[C@@H](O[C@H]5O[C@H](COS(=O)(=O)O)[C@@H](O[C@H]6O[C@H](COS(=O)(=O)O)[C@@H](O[C@H]7O[C@H](COS(=O)(=O)O)[C@@H](O[C@H]8O[C@H](COS(=O)(=O)O)[C@@H](O[C@H]9O[C@H](COS(=O)(=O)O)[C@@H](O[C@H]%10O[C@H](COS(=O)(=O)O)[C@@H](OS(=O)(=O)O)[C@H](OS(=O)(=O)O)[C@H]%10OS(=O)(=O)O)[C@H](OS(=O)(=O)O)[C@H]9OS(=O)(=O)O)[C@H](OS(=O)(=O)O)[C@H]8OS(=O)(=O)O)[C@H](OS(=O)(=O)O)[C@H]7OS(=O)(=O)O)[C@H](OS(=O)(=O)O)[C@H]6OS(=O)(=O)O)[C@H](OS(=O)(=O)O)[C@H]5OS(=O)(=O)O)[C@H](OS(=O)(=O)O)[C@H]4OS(=O)(=O)O)[C@@H](OS(=O)(=O)O)[C@@H]3OS(=O)(=O)O)[C@H](OS(=O)(=O)O)[C@@H](OS(=O)(=O)O)[C@@H]2OS(=O)(=O)O)[C@H](OS(=O)(=O)O)[C@@H](OS(=O)(=O)O)[C@H]1OS(=O)(=O)O [drawing 26, O-α-D-Glucopyranosyl(1→4)-[O-α-D-glucopyranosyl(1→4)]5 -O-β-D-glucopyranosyl(1→6)-β-D-fructofuranosyl-O-α-D-galactopyranosyl(1→6)-α-D-glucopyranoside dotriacontakis(H-sulfate), dotriacontasodium salt]	9 Wells	5 Wells	3 Wells				
pentosanpolysulfoester							has an anticomplementary activity on human serum, both in vitro and in vivo
